Where two headings read alike, the source gives them in different places.
What was measured:
Experiment in all cases: KINOMEscan ScanTK
Format in all cases: binding
[1] = biological target: T1, ABL1(E255K)-phosphorylated (Homo sapiens, UniProt P00519, E255K)
T1 construct: purchased Eurofins DiscoverX KINOMEscan (scanTK)

ABL1-phosphorylated = biological target: T2, ABL1-phosphorylated (Homo sapiens, UniProt P00519)
T2 construct: purchased Eurofins DiscoverX KINOMEscan (scanTK)

ALK(C1156Y) = biological target: T3, ALK(C1156Y) (Homo sapiens, UniProt Q9UM73, C1156Y)
T3 construct: purchased Eurofins DiscoverX KINOMEscan (scanTK)
T3 sequence (Q9UM73 19-1620 C1156Y): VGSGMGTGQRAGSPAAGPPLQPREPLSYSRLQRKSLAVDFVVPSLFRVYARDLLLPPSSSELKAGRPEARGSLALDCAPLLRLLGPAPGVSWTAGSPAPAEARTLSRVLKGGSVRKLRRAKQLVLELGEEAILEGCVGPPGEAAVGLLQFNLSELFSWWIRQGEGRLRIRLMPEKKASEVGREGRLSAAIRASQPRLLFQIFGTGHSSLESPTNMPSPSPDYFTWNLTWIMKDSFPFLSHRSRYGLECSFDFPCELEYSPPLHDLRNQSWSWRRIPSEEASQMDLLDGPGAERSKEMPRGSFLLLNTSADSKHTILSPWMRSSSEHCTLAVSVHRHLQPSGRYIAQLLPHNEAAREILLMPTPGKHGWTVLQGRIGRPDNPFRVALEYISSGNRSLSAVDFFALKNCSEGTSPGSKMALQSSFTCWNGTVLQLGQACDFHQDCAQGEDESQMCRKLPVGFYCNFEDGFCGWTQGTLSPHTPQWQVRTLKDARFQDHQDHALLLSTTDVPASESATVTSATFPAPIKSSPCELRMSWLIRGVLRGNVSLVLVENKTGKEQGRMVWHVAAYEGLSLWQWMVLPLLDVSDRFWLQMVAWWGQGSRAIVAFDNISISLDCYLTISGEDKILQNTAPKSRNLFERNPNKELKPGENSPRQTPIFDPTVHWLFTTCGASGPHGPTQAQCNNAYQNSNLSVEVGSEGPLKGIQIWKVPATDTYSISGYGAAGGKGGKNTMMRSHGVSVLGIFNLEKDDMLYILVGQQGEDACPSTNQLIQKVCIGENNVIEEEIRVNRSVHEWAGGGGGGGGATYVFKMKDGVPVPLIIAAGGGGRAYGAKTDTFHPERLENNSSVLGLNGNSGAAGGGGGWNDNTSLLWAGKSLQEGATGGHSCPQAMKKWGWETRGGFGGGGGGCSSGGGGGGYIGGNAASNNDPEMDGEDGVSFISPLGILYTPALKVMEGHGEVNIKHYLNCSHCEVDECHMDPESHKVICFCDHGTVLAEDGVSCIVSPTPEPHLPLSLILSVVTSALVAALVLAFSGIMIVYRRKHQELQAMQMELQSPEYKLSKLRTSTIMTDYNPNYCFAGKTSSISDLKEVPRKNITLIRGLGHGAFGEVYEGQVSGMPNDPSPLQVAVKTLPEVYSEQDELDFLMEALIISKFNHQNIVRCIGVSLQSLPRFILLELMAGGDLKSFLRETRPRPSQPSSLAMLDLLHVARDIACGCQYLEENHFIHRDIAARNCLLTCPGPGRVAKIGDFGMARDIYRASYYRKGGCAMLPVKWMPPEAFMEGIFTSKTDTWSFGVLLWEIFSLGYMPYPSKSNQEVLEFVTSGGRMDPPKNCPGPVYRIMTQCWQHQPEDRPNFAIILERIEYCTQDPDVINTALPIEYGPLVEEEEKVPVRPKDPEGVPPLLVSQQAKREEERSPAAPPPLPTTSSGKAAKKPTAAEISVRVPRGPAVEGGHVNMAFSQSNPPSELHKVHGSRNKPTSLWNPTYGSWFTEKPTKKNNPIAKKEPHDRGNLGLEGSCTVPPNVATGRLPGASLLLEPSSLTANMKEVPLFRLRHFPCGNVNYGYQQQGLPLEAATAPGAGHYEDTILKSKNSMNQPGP

BRK = biological target: T4, BRK (Homo sapiens, UniProt Q13882)
T4 construct: purchased Eurofins DiscoverX KINOMEscan (scanTK)

CSF1R = biological target: T5, CSF1R (Homo sapiens, UniProt P07333)
T5 construct: purchased Eurofins DiscoverX KINOMEscan (scanTK)

EGFR(G719S) = biological target: T6, EGFR(G719S) (Homo sapiens, UniProt P00533, G719S)
T6 construct: purchased Eurofins DiscoverX KINOMEscan (scanTK)

[2] = biological target: T7, EGFR(L747-E749del, A750P) (Homo sapiens, UniProt P00533, A750P/DEL747-749)
T7 construct: purchased Eurofins DiscoverX KINOMEscan (scanTK)
T7 sequence (P00533 with tags, fused parts or gaps DEL747-749/A750P limits assumed): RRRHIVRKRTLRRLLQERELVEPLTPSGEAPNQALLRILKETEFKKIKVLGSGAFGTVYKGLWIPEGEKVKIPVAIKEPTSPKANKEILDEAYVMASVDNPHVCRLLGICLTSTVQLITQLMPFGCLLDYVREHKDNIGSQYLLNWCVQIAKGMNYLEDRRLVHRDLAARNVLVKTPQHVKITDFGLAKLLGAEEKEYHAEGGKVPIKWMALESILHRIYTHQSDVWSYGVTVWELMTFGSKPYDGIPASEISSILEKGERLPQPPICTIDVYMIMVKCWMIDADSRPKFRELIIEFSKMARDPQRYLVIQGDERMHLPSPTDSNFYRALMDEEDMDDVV

EPHB1 = biological target: T8, EPHB1 (Homo sapiens, UniProt P54762)
T8 construct: purchased Eurofins DiscoverX KINOMEscan (scanTK)
T8 sequence (P54762 18-984): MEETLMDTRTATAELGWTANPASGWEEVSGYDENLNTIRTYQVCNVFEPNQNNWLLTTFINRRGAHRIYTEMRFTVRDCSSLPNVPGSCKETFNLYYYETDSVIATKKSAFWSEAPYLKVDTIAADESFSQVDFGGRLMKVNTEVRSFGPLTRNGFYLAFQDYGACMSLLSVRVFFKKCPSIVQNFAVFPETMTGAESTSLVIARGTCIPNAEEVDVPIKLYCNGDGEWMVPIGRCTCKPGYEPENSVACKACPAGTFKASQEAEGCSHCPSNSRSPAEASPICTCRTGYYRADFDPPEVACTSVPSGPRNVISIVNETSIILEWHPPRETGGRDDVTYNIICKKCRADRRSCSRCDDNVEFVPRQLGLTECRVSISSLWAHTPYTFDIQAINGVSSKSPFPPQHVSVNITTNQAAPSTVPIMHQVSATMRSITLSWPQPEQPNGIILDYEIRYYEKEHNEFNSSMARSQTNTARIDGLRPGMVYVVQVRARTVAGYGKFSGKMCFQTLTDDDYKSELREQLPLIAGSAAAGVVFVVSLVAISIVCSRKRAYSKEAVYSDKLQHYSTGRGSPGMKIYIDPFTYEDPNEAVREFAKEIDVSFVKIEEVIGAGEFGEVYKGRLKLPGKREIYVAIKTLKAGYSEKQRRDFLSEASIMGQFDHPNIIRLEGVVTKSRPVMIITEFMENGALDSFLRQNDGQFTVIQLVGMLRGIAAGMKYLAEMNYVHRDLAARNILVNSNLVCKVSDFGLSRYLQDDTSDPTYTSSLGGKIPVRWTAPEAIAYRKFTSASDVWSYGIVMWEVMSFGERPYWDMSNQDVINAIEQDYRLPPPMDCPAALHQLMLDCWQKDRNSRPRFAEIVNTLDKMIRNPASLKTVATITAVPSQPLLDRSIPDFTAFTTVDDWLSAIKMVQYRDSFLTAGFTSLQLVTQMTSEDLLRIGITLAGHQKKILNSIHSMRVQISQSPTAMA

FGFR2 = biological target: T9, FGFR2 (Homo sapiens, UniProt P21802)
T9 construct: purchased Eurofins DiscoverX KINOMEscan (scanTK)

FYN = biological target: T10, FYN (Homo sapiens, UniProt P06241)
T10 construct: purchased Eurofins DiscoverX KINOMEscan (scanTK)

[3] = biological target: T11, JAK2(JH1domain-catalytic) (Homo sapiens, UniProt O60674)
T11 construct: JAK2(JH1domain-catalytic); purchased Eurofins DiscoverX KINOMEscan (scanTK)
T11 sequence (O60674 849-1132 limits assumed): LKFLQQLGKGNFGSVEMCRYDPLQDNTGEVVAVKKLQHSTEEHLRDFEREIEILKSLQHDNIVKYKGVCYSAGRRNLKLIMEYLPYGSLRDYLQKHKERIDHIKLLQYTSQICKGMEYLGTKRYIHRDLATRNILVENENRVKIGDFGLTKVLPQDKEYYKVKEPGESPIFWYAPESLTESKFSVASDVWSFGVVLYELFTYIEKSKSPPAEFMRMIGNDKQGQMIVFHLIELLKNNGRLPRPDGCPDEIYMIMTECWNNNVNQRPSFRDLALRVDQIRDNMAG

KIT(A829P) = biological target: T12, KIT(A829P) (Homo sapiens, UniProt P10721, A829P)
T12 construct: purchased Eurofins DiscoverX KINOMEscan (scanTK)

LTK = biological target: T13, LTK (Homo sapiens, UniProt P29376)
T13 construct: purchased Eurofins DiscoverX KINOMEscan (scanTK)
T13 sequence (P29376 17-864): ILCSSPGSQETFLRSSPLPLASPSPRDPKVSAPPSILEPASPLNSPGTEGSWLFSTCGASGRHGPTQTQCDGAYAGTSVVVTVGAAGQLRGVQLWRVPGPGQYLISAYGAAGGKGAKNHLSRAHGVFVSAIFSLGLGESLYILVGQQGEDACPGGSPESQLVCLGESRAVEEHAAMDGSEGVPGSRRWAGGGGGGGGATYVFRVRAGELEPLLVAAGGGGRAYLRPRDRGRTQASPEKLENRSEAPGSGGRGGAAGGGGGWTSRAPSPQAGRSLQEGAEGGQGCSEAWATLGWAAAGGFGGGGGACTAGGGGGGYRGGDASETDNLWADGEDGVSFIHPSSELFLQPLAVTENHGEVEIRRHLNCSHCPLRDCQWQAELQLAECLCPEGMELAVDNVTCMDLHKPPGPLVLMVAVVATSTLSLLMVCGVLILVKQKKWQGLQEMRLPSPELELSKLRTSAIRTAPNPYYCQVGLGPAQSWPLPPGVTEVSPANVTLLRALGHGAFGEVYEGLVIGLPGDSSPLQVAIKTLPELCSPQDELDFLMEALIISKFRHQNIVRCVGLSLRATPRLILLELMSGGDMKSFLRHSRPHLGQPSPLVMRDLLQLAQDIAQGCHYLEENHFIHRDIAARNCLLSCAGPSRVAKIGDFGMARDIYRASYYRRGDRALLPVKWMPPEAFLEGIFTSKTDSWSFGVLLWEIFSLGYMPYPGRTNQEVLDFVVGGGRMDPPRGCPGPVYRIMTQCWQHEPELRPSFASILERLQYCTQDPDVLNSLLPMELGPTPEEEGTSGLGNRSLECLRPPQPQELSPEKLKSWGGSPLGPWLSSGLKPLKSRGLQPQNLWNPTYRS

PDGFRB = biological target: T14, PDGFRB (Homo sapiens, UniProt P09619)
T14 construct: purchased Eurofins DiscoverX KINOMEscan (scanTK)

TIE2 = biological target: T15, TIE2 (Homo sapiens, UniProt Q02763)
T15 construct: purchased Eurofins DiscoverX KINOMEscan (scanTK)

TRKA = biological target: T16, TRKA (Homo sapiens, UniProt P04629)
T16 construct: purchased Eurofins DiscoverX KINOMEscan (scanTK)
T16 sequence (P04629 33-796): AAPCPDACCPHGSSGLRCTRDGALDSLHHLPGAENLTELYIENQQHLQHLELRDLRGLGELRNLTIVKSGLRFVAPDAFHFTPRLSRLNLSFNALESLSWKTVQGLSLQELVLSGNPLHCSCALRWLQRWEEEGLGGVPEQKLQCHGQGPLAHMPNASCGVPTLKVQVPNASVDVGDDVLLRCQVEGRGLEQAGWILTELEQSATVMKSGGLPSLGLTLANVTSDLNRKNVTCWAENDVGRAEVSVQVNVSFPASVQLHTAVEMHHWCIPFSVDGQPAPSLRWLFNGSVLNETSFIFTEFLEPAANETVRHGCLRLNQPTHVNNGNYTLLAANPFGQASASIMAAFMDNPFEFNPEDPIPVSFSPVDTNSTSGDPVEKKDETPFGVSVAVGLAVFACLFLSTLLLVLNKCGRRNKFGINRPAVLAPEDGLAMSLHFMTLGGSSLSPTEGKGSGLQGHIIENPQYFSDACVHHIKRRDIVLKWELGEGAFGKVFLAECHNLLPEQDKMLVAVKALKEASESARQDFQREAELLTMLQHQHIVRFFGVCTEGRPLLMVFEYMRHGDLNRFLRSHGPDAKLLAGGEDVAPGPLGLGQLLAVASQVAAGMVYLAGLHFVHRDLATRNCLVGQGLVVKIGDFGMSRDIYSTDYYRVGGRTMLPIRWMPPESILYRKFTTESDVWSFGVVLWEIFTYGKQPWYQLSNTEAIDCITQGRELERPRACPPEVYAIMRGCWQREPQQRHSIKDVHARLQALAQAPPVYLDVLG

T1 sequence (P00519 whole entry E255K): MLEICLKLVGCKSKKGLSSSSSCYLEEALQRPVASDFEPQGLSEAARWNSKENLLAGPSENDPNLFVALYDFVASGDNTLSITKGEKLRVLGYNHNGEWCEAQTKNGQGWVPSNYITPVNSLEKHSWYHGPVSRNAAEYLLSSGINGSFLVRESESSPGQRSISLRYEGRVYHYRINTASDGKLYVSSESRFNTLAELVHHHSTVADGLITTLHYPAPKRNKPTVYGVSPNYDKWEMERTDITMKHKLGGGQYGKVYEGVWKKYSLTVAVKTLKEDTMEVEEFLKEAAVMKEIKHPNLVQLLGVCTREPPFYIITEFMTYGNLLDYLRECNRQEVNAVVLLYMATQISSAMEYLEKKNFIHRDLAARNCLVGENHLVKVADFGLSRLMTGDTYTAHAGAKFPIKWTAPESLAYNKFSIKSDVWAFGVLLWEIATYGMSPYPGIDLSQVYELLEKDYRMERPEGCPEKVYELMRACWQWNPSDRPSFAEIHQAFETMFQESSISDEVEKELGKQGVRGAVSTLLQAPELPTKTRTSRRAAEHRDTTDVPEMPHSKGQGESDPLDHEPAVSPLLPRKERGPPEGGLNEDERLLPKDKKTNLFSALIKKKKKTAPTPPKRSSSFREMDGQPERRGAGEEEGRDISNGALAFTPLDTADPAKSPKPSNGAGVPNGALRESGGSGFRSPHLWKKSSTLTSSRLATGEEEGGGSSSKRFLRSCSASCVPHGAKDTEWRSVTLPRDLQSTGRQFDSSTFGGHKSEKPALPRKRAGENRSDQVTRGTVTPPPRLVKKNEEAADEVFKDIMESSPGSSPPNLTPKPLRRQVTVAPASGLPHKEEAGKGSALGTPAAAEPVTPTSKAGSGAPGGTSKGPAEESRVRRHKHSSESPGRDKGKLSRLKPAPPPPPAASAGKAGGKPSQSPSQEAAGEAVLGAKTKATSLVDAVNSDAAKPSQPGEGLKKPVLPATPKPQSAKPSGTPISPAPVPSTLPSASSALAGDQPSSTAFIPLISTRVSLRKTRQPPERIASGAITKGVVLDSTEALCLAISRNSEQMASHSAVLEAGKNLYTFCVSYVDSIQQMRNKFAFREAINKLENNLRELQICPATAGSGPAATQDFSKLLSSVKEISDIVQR
T2 sequence (P00519 whole entry): as the sequence (P00519 whole entry E255K) above, with K255E counted along it

Cc1cnc(S(C)(=O)=O)nc1N1CCCC(n2nc(-c3ccc(Oc4ccccc4)cc3)c3c(N)ncnc32)C1 (centres unmarked) [Compound 8a, 1-(1-(5-Methyl-2-(methylsulfonyl)pyrimidin-4-yl)piperidin-3-yl)-3-(4-phenoxyphenyl)-1H-pyrazolo[3,4-d]pyrimidin-4-amine]
difference in %Control from reference Ib at 1 µM ([1]; @1000nM, read-out: % difference (compound - Ib %Control)): 12%
remaining binding at 1 µM ([1]; @1000nM, read-out: %Control): 76%
remaining binding at 1 µM ([1]; read-out: %Control @1000nM): 76%
difference in %Control from compound Ib at 1 µM (ABL1-phosphorylated; @1000nM): 20%
remaining binding at 1 µM (ABL1-phosphorylated; @1000nM, read-out: %Control): 80%
remaining binding at 1 µM (ABL1-phosphorylated; read-out: %Control @1000nM): 80%
difference in %Control versus compound Ib at 1 µM (ALK(C1156Y); @1000nM): -13%
remaining binding at 1 µM (ALK(C1156Y); @1000nM, read-out: %Control): 85%
remaining binding at 1 µM (ALK(C1156Y); read-out: %Control @1000nM): 85%
difference in %Control relative to compound Ib at 1 µM (BRK; @1000nM): 13.7%
remaining binding at 1 µM (BRK; @1000nM, read-out: %Control): 15%
remaining binding at 1 µM (BRK; read-out: %Control @1000nM): 15%
difference in %Control versus compound Ib at 1 µM (CSF1R; @1000nM): 12%
remaining binding at 1 µM (CSF1R; @1000nM, read-out: %Control): 92%
remaining binding at 1 µM (CSF1R; read-out: %Control @1000nM): 92%
difference in %Control from compound Ib at 1 µM (EGFR(G719S); @1000nM): 95.4%
remaining binding at 1 µM (EGFR(G719S); @1000nM, read-out: %Control): 96%
remaining binding at 1 µM (EGFR(G719S); read-out: %Control @1000nM): 96%
difference in %Control versus compound Ib at 1 µM ([2]; @1000nM): 79.9%
remaining binding at 1 µM ([2]; @1000nM, read-out: %Control): 83%
remaining binding at 1 µM ([2]; read-out: %Control @1000nM): 83%
difference in % of control versus compound Ib at 1 µM (EPHB1; @1000nM, EPHB1): 3%
remaining binding at 1 µM (EPHB1; @1000nM, EPHB1, read-out: %Control): 93%
remaining binding at 1 µM (EPHB1; EPHB1, read-out: %Control @1000nM): 93%
difference in %Control vs compound Ib at 1 µM (FGFR2; @1000nM): 46%
remaining binding at 1 µM (FGFR2; @1000nM, read-out: %Control): 85%
remaining binding at 1 µM (FGFR2; read-out: %Control @1000nM): 85%
difference in % of control versus compound Ib at 1 µM (FYN; @1000nM): 7.4%
remaining binding at 1 µM (FYN; @1000nM, read-out: %Control): 17%
remaining binding at 1 µM (FYN; read-out: %Control @1000nM): 17%
difference in %Control vs compound Ib at 1 µM ([3]; @1000nM): -13%
remaining binding at 1 µM ([3]; @1000nM, read-out: %Control): 87%
remaining binding at 1 µM ([3]; read-out: %Control @1000nM): 87%
remaining binding at 1 µM (KIT(A829P); @1000nM, read-out: %Control): 84%
remaining binding at 1 µM (KIT(A829P); read-out: %Control @1000nM): 84%
remaining binding at 1 µM (LTK; @1000nM, read-out: %Control): 93%
remaining binding at 1 µM (LTK; read-out: %Control @1000nM): 93%
remaining binding at 1 µM (PDGFRB; @1000nM, read-out: %Control): 27%
remaining binding at 1 µM (PDGFRB; read-out: %Control @1000nM): 27%
remaining binding at 1 µM (TIE2; @1000nM, read-out: %Control): 91%
remaining binding at 1 µM (TIE2; read-out: %Control @1000nM): 91%
difference in % of control versus compound Ib at 1 µM (TRKA; @1000nM, TRKA): 12%
remaining binding at 1 µM (TRKA; @1000nM, TRKA, read-out: %Control): 97%
remaining binding at 1 µM (TRKA; TRKA, read-out: %Control @1000nM): 97%

C=CC(=O)N1CCC[C@@H](n2nc(-c3ccc(Oc4ccccc4)cc3)c3c(N)ncnc32)C1 [Compound 1g, Ibrutinib, reference compound]
remaining binding at 1 µM ([1]; @1000nM, read-out: %Control): 64%
remaining binding at 1 µM ([1]; read-out: %Control @1000nM): 64%
remaining binding at 1 µM (ABL1-phosphorylated; @1000nM, read-out: %Control): 60%
remaining binding at 1 µM (ABL1-phosphorylated; read-out: %Control @1000nM): 60%
remaining binding at 1 µM (ALK(C1156Y); @1000nM, read-out: %Control): 98%
remaining binding at 1 µM (ALK(C1156Y); read-out: %Control @1000nM): 98%
remaining binding at 1 µM (BRK; @1000nM, read-out: %Control): 1.3%
remaining binding at 1 µM (BRK; read-out: %Control @1000nM): 1.3%
remaining binding at 1 µM (CSF1R; @1000nM, read-out: %Control): 80%
remaining binding at 1 µM (CSF1R; read-out: %Control @1000nM): 80%
remaining binding at 1 µM (EPHB1; read-out: %Control): 90%
remaining binding at 1 µM (EPHB1; read-out: %Control @1000nM): 90%
remaining binding at 1 µM (FGFR2; @1000nM, read-out: %Control): 39%
remaining binding at 1 µM (FGFR2; read-out: %Control @1000nM): 39%
remaining binding at 1 µM (FYN; @1000nM, read-out: %Control): 9.6%
remaining binding at 1 µM (FYN; read-out: %Control @1000nM): 9.6%
remaining binding at 1 µM ([3]; @1000nM, read-out: %Control): 100%
remaining binding at 1 µM ([3]; read-out: %Control @1000nM): 100%
remaining binding at 1 µM (LTK; @1000nM, read-out: %Control): 81%
remaining binding at 1 µM (LTK; read-out: %Control @1000nM): 81%
remaining binding at 1 µM (PDGFRB; @1000nM, read-out: %Control): 25%
remaining binding at 1 µM (PDGFRB; read-out: %Control @1000nM): 25%
remaining binding at 1 µM (TRKA; read-out: %Control): 85%
remaining binding at 1 µM (TRKA; read-out: %Control @1000nM): 85%
